Experimental data taken from patent US20070218509A1, “Murine Living Tissue Model & UsesTthereof” (priority 2003, published 2007).

Experiments:
[1] = test system: T52 Hufos invasive tumour model; assay: T52 Hufos invasive tumour three-dimensional model, area of cell cover; assay type: cell-based, mouse; conditions: 10^−7M RA, 10 day culture period (FIG. 7)
From the text: Hufos invasive tumour model over a 10 day culture period. In summary the in vitro models were developed using contracted collagen gels which supported a layer of mouse tumour cells or corresponding “normal” epithelial cells. The collagen gel was comprised of type I collagen, isolated from rat tail tendon, contracted using primary mouse fibroblasts, which were isolated from the dermis of newborn (or embryonic) mice. The collagen gels contracted to a size approximately 1.5 cm in diameter and were seeded with a single cell suspension of mouse tumour or normal epithelial cells. The models were initially maintained as submerged cultures, which allowed the cells to adhere to the collagen gel and grow. The models may thereafter be raised to the air-liquid interface (semi-submerged culture) to promote cell differentiation and formation of tissue. […] Test agents can be added to the model system at different stages of tumour development. The models are directly imaged as whole mounts by fluorescent labelling of cells either with vital dyes or genetic markers or after fixation and staining. In more detail, the collagen gel, described below, which supports the layer of epithelial cells (BalbMK (Weissman and Aaronson 1985), SP-1 (Strickland et al. 1988) or [MUT] Hufos (Greenhalgh and Yuspa 1988) in the prototype models), was contracted using dermal fibroblasts isolated from newborn mouse skin. […]

[2] = test system: SP-1 papilloma model; assay: SP-1 papilloma three-dimensional model, area of cell cover (propidium iodide stained whole mounts); assay type: cell-based, mouse; conditions: SP-1 model
Procedure: In summary the in vitro models were developed using contracted collagen gels which supported a layer of mouse tumour cells or corresponding “normal” epithelial cells. The collagen gel was comprised of type I collagen, isolated from rat tail tendon, contracted using primary mouse fibroblasts, which were isolated from the dermis of newborn (or embryonic) mice. The collagen gels contracted to a size approximately 1.5 cm in diameter and were seeded with a single cell suspension of mouse tumour or normal epithelial cells. The models were initially maintained as submerged cultures, which allowed the cells to adhere to the collagen gel and grow. The models may thereafter be raised to the air-liquid interface (semi-submerged culture) to promote cell differentiation and formation of tissue. […] Test agents can be added to the model system at different stages of tumour development. The models are directly imaged as whole mounts by fluorescent labelling of cells either with vital dyes or genetic markers or after fixation and staining.
In more detail, the collagen gel, described below, which supports the layer of epithelial cells (BalbMK (Weissman and Aaronson 1985), SP-1 (Strickland et al. 1988) or T52 Hufos (Greenhalgh and Yuspa 1988) in the prototype models), was contracted using dermal fibroblasts isolated from newborn mouse skin. The epidermis and dermis were separated from each other following an overnight digestion with trypsin at 4° C. The dermal tissue washed in sterile PBS, dissected-into very small pieces, suspended in 3-5 ml of MEM culture media and the slurry seeded into a 75 cm^2 plastic culture flask. This tissue was cultured without disturbance until the tissue pieces had adhered to the plastic flask. Fresh MEM (Minimum Essential Medium) supplemented with 10% foetal calf serum, 1% L-glutamine, 100 U/ml penicillin and 100 μg/ml streptomycin was added to the flask at this time. Fibroblast cell outgrowth from the dermal tissue explants was observed after several days. The excess tissue was removed and the fibroblast cells cultured to confluence. […]

[3] = test system: SP-1 cells; assay: Growth curves of SP-1 cells in monolayer culture; assay type: cell-based; conditions: Mus musculus, 240 h; SP-1 monolayer culture, 10 days in culture, 10^−7M RA; read-out: inhibition of the log phase of growth
[4] = test system: SP-1 papilloma model; assay: SP-1 papilloma model, cell killing (H & E stained paraffin sections); assay type: cell-based, mouse; conditions: SP-1 model
Procedure: (§1) FIG. 10: Treatment of models with the anti-tumour drug cisplatin. H & E stained paraffin sections (×400 magnification) of SP-1 “papilloma” model (A, C and E) and T52-Hufos “invasive tumour” model (B, D and F). Shown are (A and B) untreated models (without cisplatin), (C and D) models treated with 50 μM cisplatin and (E and F) models treated with 500 μM cisplatin.
(§2) Cell models were harvested at appropriate time intervals and fixed overnight, at room temperature in a solution of buffered formalin. A small piece of the model was removed and embedded in paraffin wax. Sections were cut and mounted onto glass slides and stained with haematoxylin and eosin (H & E stain). The remainder of the model washed in PBS (phosphate buffered saline), permeabilised with Triton X-100 and stained with propidium iodide (PI). The washed models were stored thereafter in the dark at 4° C. and maintained their fluorescence for several weeks. Whole mounts of the PI stained models were analysed using fluorescent microscopy through coverslips applied directly to the surface of the tissue.

[5] = test system: T52 Hufos invasive tumour model; assay: T52 Hufos invasive tumour model, cell killing (H & E stained paraffin sections); assay type: cell-based, mouse
Procedure: as §1, §2

[6] = higher cisplatin concentration (500 μM, FIG. 10)
[7] = lower cisplatin concentration (50 μM, FIG. 10)

Row | SMILES | effect on area of cell cover [1] | effect on area of cell cover ([2]; 10^−6M RA (highest concentration studied), day 8 and day 10 (FIG. 6)) | effect on area of cell cover ([2]; 10^−7M RA, vs untreated controls, time course to day 12 (FIG. 5)) | degree of growth inhibition, concentration dependence ([2]; RA at 10^−6M, 10^−7M and 10^−8M (FIG. 6)) | inhibition at 0.1 µM [3] [%] | cell killing [4, 6] | cell killing [4, 7] | cell killing [5, 6] | cell killing [5, 7]
1 | CC1=C(/C=C/C(C)=C/C=C/C(C)=C/C(=O)O)C(C)(C)CCC1 [RA, All-trans-Retinoic acid] | no effect | marked effect | modest effect with less cell cover than the corresponding untreated controls | concentration dependent | 46 | – | – | – | –
2 | N.N.[Cl][Pt][Cl] [cisplatin] | – | – | – | – | – | extensive cell death | evidence of cell killing | extensive cell death | evidence of cell killing
